From patent US20090226500A1, “SUTURES AND ANTI-SCARRING AGENTS” (Angiotech Pharmaceuticals, Inc, priority 2006, published 2009) come the findings set out here.

pIC50: −log10 of the molar value. “Also recorded” adds a separate entry of the source.

One assay relates to stromelysin (MMP-3). Kind of assay: IL-1 induced stromelysin (MMP-3) mRNA expression in chondrocytes. Type of assay: cell-based. Here is the method:
(§1) Cells were treated with paclitaxel at various concentrations (10^−7 to 10^−5 M) for 24 hours, then treated with IL-1β (20 ng/ml) for additional 18 hours in the presence of paclitaxel. Total RNA was isolated, and the MMP-1 mRNA levels were determined by Northern blot analysis. The blots were subsequently stripped and re-probed with ^32P-radiolabeled rat GAPDH cDNA, which was used as a housekeeping gene. The results shown are representative of four independent experiments (FIG. 10D). Quantitation of collagenase-1 and stromelysin-expression mRNA levels were conducted. The MMP-1 and MMP-3 expression levels were normalized with GAPDH.

In assay [1] the test system is murine RAW 264.7 macrophage cell line. Put plainly: Proliferation of murine RAW 264.7 macrophage cell line. Type of assay: cell-based. The conditions noted are these: Mus musculus, RAW264.7.
The next assay has as its system human fibroblasts. Kind of assay: Cell proliferation of fibroblasts. Type of assay: cell-based. The conditions noted are these: Fibroblast, 72 hours, CYQUANT, read-out: IC50 cell proliferation of fibroblasts. An outline of the steps: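 Human fibroblasts plated at 600 cells/well, attached overnight, then exposed to drug in triplicate for 72 h at 37°C. Cell content read with CYQUANT GR dye in lysis buffer after 3-5 min at room temperature.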

The subject of another assay is collagenase (MMP-1). Put plainly: IL-1 induced collagenase (MMP-1) mRNA expression in chondrocytes. Type of assay: cell-based, calf. Here is the method:
as §1
Primary chondrocyte cultures were freshly isolated from calf cartilage. The cells were plated at 2.5×10^6 per ml in 100×20 mm culture dishes and incubated in Ham's F12 medium containing 5% FBS overnight at 37° C. The cells were starved in serum-free medium overnight and then treated with anti-microtubule agents at various concentrations for 6 hours. IL-1 (20 ng/ml) was then added to each plate and the plates incubated for an additional 18 hours. Total RNA was isolated by the acidified guanidine isothiocyanate method and subjected to electrophoresis on a denatured gel Denatured RNA samples (15 μg) were analyzed by gel electrophoresis in a 1% denatured gel, transferred to a nylon membrane and hydridized with the ^32P-labeled collagenase cDNA probe. ^32P-labeled glyceraldehyde phosphate […] (GAPDH) cDNA was used as an internal standard to ensure roughly equal loading. The exposed films were scanned and quantitatively analyzed with IMAGEQUANT.

The subject of assay [2] is AP-1. Put plainly: IL-1 stimulated AP-1 transcriptional activity (CAT reporter) in chondrocytes. Type of assay: cell-based. The conditions noted are these: 10^−7 to 10^−5 M.
Assay [3] relates to CAM vasculature (angiogenesis). Put plainly: Chick chorioallantoic membrane (CAM) assay. Conditions: for Inhibition/n: 48 hours.
Another assay relates to Smooth muscle cells. Kind of assay: Proliferation of smooth muscle cells. Type of assay: cell-based. The conditions noted are these: 72 hours, CYQUANT; read-out: IC50 proliferation of smooth muscle cells. Put shortly: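 Smooth muscle cells at 600 cells/well, exposed to paclitaxel (DMSO stocks 10^−8 to 10^−2 M) in triplicate for 72 h at 37 °C. Proliferation read with CyQUANT GR dye in lysis buffer.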

Assay [4] deals with AP-1. Put plainly: IL-1 induced AP-1 DNA binding activity (gel mobility shift). Type of assay: cell-based. Conditions: chondrocyte lysates, pretreated 10^−7 to 10^−5 M for 24 hours. Here is the method: Binding activity was assayed with a radiolabeled human AP-1 sequence probe and gel mobility shift assay. Extracts from chondrocytes untreated or treated with various amounts of paclitaxet (10^−7 to 10^−5 M) followed by IL-1β (20 ng/ml) were incubated with excess probe on ice for 30 minutes, followed by non-denaturing gel electrophoresis (FIG. 10B). The “com” lane contains excess unlabeled AP-1 oligonucleotide. The results shown are representative of three independent experiments.

Assay [5] has as its system Primary human smooth muscle cells. Kind of assay: Smooth muscle cell migration. The conditions noted are these: chemotaxis to rhPDGF-BB 10 ng/ml, 4 hours. Type of assay: cell-based. How it is done: Primary human smooth muscle cells were starved of serum in smooth muscle cell basal media containing insulin and human basic fibroblast growth factor (bFGF) for 16 hours prior to the assay. For the migration assay, cells were trypsinized to remove cells from flasks, washed with migration media and diluted to a concentration of 2-2.5×10^5 cells/ml in migration media. Migration media consists of phenol red free Dulbecco's Modified Eagle Medium (DMEM) containing 0.35% human serum albumin. A 100 μL volume of smooth muscle cells (approximately 20,000-25,000 cells) was added to the top of a Boyden chamber assembly (Chemicon QCM CHEMOTAXIS 96-well migration plate). To the bottom wells, the chemotactic agent, recombinant human platelet derived growth factor (rhPDGF-BB) was added at a concentration of 10 ng/ml in a total volume of 150 μL. Paclitaxel was prepared in DMSO at a concentration of 10^−2 M and serially diluted 10-fold to give a range of stock concentrations (10^−8 M to 10^−2 M). […]
At the end of the 4-hour period, cells in the top chamber were discarded and the smooth muscle cells attached to the underside of the filter were detached for 30 minutes at 37° C. in Cell Detachment Solution (Chemicon). […] Fluorescence was read in a fluorescence microplate reader at ˜480 nm excitation wavelength and ˜520 nm emission maxima. […]

For `CC(=O)O[C@H]1C(=O)[C@@]2(C)[C@H]([C@H](OC(=O)c3ccccc3)[C@]3(O)C[C@H](OC(=O)[C@H](O)[C@@H](NC(=O)c4ccccc4)c4ccccc4)C(C)=C1C3(C)C)[C@]1(OC(C)=O)CO[C@@H]1C[C@@H]2O` [paclitaxel, 5β,20-epoxy-1,2 alpha,4,7β,10β,13 alpha-hexahydroxytax-11-en-9-one-4,10-diacetate-2-benzoate-13-(alpha-phenylhippurate)], the “IL-1 induced stromelysin mRNA levels” value in the assay on stromelysin (MMP-3) (at 10^−5 M) is on record as “complete inhibition”; with stromelysin (MMP-3) (chondrocytes, pretreatment for 24 hours), “significantly reduced; also recorded: inhibited”. Further, the “concentration that inhibits stromelysin expression” value with stromelysin (MMP-3) (chondrocytes in vitro) is recorded as 10^−6 M. Also, the pIC50 was 6.87 in assay [1], 7.00 to 8.00 in the assay on human fibroblasts, 8.15 with Smooth muscle cells and 9.12 in assay [5]. Besides, the “IL-1 induced collagenase mRNA levels” value is recorded as “complete inhibition” in the assay on collagenase (MMP-1) (at 10^−5 M) and “significantly reduced; also recorded: inhibited” in the assay with collagenase (MMP-1) (chondrocytes, pretreatment before IL-1). The “concentration that inhibits IL-1-induced collagenase expression” value in the assay on collagenase (MMP-1) (chondrocytes in vitro) is reported as 10^−6 M. The “IL-1 induced AP-1 reporter gene CAT activity” value in the assay on AP-1 [2] is on record as “decreased CAT activity in a concentration dependent manner; also recorded: reduced”. For the same compound, the Inhibition/n in assay [3] (0.25 μg in methylcellulose (10 μl)) is reported as 2/11; in assay [3] (0.5 μg in methylcellulose (10 μl)) it was 6/11; in assay [3] (1 μg in methylcellulose (10 μl)) it was 6/15; in [3] (5 μg in methylcellulose (10 μl)), 20/27; in assay [3] (10 μg in methylcellulose (10 μl)), 16/21; in [3] (30 μg in methylcellulose (10 μl)), 31/31. Besides, the angiogenesis entry in assay [3] (48 hours after application to the CAM) was “inhibited”. For the same compound, the avascular gradient scale in [3] (maximal avascular zone within 48 hours, depending on concentration) is 3. In the assay on AP-1 [4], the “IL-1 induced AP-1 binding activity” value was “decreased”.
